Results taken from patent US20250051337A1 (priority 2021, published 2025).
pIC50: −log10 of the molar value. Like-named read-outs stand apart in the source and are kept apart here. Marks after values point to notes of the source that are not given here.

Key:
[1] = In vivo plasma and liver concentrations, 20 mg/kg intraperitoneal; conditions: female, C57BL/6J, mouse, ip
Experimental: All animal procedures were approved by the Sanford Burnham Prebys Medical Discovery Institute Institutional Animal Care and Use Committee and were performed according to the NIH guidelines for the Care and Use of Laboratory Animals. Adult female C57BL/6J mice were purchased from Jackson Laboratories and housed with free access to food and water on a 12 h light/dark cycle. Compounds were formulated in 5% DMSO, 10% Tween-80, and 85% H2O and injected intraperitoneally at 10 or 20 mg/kg. Blood samples were collected retro-orbitally at the indicated times and plasma was prepared by centrifugation. Livers were collected post mortem at the indicated times.
For quantification of compound, plasma samples were extracted with acetonitrile: water 4:1 with 0.1% formic acid containing indomethacin as an internal standard. Samples were centrifuged and the supernatants were diluted with acetonitrile: water and analyzed by LC-MS/MS using a Shimadzu Nexera X2 High-performance liquid chromatography (HPLC) (Shimadzu Scientific Instruments: Kyoto, Japan) coupled to an AB Sciex 6500 QTRAP (AB Sciex LLC: Toronto, Canada).
(§1) Adult female C57BL/6 mice (n=3/group) were intraperitoneally injected with vehicle or test compound (20 mg/kg), and blood samples and livers were collected at 30 min and 1 h post-injection, respectively. Plasma concentrations of all 13 compounds were >1.4 μM at 30 min after injection, and 10 compounds had liver concentrations >1.0 μM at 1 h after injection, as measured by LC-MS/MS, with particularly high plasma concentrations obtained with compounds 11 (15.9 μM), 16 (11.6 μM) and 105 (8.7 μM) (Table 5). To evaluate target engagement in vivo, the total and phosphorylated MOB1 levels in livers collected at 1 h post-injection was examined.
Tween 80 and water and were administered to mice by intraperitoneal injection. Blood samples and livers were collected at 30 min and 1 h post-dose, respectively. Plasma concentrations and relative pMOB1 levels were determined by LC-MS/MS and western blot analysis, respectively. (n=3).

STK4 = STK4 (Homo sapiens (Human), UniProt Q13043); assay: ADP-Glo kinase assay, STK4; format: biochemical; conditions: ADP-Glo, 50 μM ATP; read-out: STK4 IC50
Method in brief: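 Full-length recombinant human STK3 (50 ng) phosphorylated 250 μg/mL myelin basic protein, and full-length STK4 (50 ng) phosphorylated 300 μg/mL Axltide, both at 50 μM ATP; ADP formed detected by ADP-Glo. Three experiments, each in triplicate.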

[2] = tested on: YAP/TAZ-TEAD activity (8×GTIIC-luciferase) in HEK293 cells; assay: YAP-TAZ-TEAD luciferase assay; format: cell-based; conditions: 10 μM, 48 h, vs DMSO
Experimental: 8×GTIIC-luciferase was a gift from Stefano Piccolo (Addgene plasmid #34615, http://n2t.net/addgene: 34615: RRID: Addgene_34615). HEK293 cells were transfected with 8×GTIIC-luciferase plasmid and control Renilla luciferase plasmid using jetPRIME transfection reagent (Polyplus-transfection RSA: New York, NY. USA) for 24 h and cultured in Dulbeco's Modified Eagle Media (DMEM) Glutamax supplemented with 10% Fetal Bovine Serum (FBS), antibiotic/antimycotic, and sodium pyruvate (Gibco. Thermo FisherScientific: Waltham. MA. USA). The transfected cells were treated with 10 μM compound in triplicate and incubated for 48 h at 37° C. Firefly and Renilla luminescence were detected with a Dual-Glo Luciferase Assay System (Promega #E2920) according to the manufacturer's recommendations. The ratio of firefly to Renilla luminescence was calculated for each well and normalized to the ratio in control cells incubated with DMSO.
STK3/4 can negatively regulate the activity of the YAP/TAZ-TEAD protein complex and, accordingly, inactivation of these kinases reduces the transcription of YAP/TAZ-TEAD target genes. […] The results confirmed the intracellular on-target activity of our potent compounds for inhibiting STK3 and STK4 activity and targeting gene expression in the Hippo signaling pathway.

[3] = tested on: Thr35-phosphorylated MOB1 in liver; assay: Western blot analysis of p-MOB1 in mouse liver; format: in vivo; conditions: mice; for levels of Thr35-phosphorylated MOB1 in liver vs vehicle / Relative decrease in liver p-MOB1 level: 20 mg/kg intraperitoneal; for levels of Thr35-phosphorylated MOB1 in liver vs vehicle: 1 h, p<0.002; for Relative decrease in liver p-MOB1 level: 1 h post-dose
Experimental: […] Approximately 50 mg of liver tissue was placed in 1 mL Radioimmunoprecipitation assay (RIPA) buffer (50 mM Tris-HCl pH 8.0, 150 mM NaCl, 1.0% IGEPAL® CA-630, 0.5% sodium deoxycholate, and 0.1% SDS) containing phosphatase and protease inhibitor cocktails, homogenized with a PowerGen 125 homogenizer (Fisher Scientific), and then sonicated for 10 s. Homogenized tissues were centrifuged at 14,000×g at 4° C. for 20 min and the supernatants were recovered.
Protein concentrations in the supernatants were determined using a BCA assay (Pierce/Thermo Scientific). Proteins were separated on Novex™ WedgeWell™ 4-20% Tris-Glycine Gels (Invitrogen: Carlsbad, CA, USA) and transferred to polyvinylidene difluoride (Trans-Blot® Turbo™ Transfer Pack) membranes. Membranes were blocked in Tris-buffered saline Tween® 20 (50 mM Tris-HCl pH 7.6, 150 mM NaCl, 0.05% Tween 20: TBST) containing 3% Bovine Serum Albumin (BSA) for 1 h at room temperature and incubated overnight at 4° C. with primary antibodies as follows: 1:1000 dilution of anti-MOB1 (rabbit monoclonal antibody [mAb]#13730), 1:1000 anti-phospho-MOB1 Thr35 (rabbit mAb #8699), or 1:5000 anti-GAPDH (rabbit mAb #2118: all from Cell Signaling Technology: Danvers, MA, USA). Blots were rinsed three times with TBST and then incubated in 5% nonfat milk containing horseradish peroxidase (HRP)-conjugated mouse anti-rabbit IgG secondary Ab (Cell Signaling Technology) for 1 h at RT. Blots were washed three times with TBST, developed using Pierce® ECL Western Blotting reagent, and imaged and analyzed using with ImageJ software. Quantitative data are expressed as the level of phosphorylated MOB1 normalized to total MOB1.
as §1

[4] = mice, 20 mg/kg intraperitoneal, 30 min post-dose, read-out: Plasma concentration

Chain of STK4 (Q13043 whole entry): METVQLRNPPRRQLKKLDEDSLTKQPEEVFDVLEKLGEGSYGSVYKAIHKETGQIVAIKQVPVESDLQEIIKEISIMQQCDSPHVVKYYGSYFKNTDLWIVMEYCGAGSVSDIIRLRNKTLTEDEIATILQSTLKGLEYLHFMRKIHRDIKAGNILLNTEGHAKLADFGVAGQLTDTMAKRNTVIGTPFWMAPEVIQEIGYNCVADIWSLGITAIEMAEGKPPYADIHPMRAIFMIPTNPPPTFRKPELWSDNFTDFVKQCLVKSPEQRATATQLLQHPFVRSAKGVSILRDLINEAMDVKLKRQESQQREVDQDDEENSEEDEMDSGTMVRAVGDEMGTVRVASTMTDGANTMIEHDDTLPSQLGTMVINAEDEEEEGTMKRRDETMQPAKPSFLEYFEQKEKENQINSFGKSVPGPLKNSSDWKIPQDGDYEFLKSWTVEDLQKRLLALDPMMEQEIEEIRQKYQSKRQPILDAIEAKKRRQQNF

Compound | concentration at 30 min ([1]; 20 mg/kg) [µM] | concentration at 1 h ([1]; 20 mg/kg) [µM] | pIC50 (STK4) | YAP/TAZ-TEAD activity (luciferase reporter) [2] | inhibition of MOB1 phosphorylation in liver ([3]; 10 mg/kg intraperitoneal, 1, 2, 3 h) | levels of Thr35-phosphorylated MOB1 in liver vs vehicle [3] | concentration at 30 min [1, 4] [µM] | Relative decrease in liver p-MOB1 level [3]
Clc1cccc(-c2c[nH]c3ncnc(N4CCOCC4)c23)c1 [Compound 6, 4-(5-(3-Chlorophenyl)-7H-pyrrolo[2,3-d]pyrimidin-4-yl)morpholine] | 6.9 | 15.3 | > 6.00 | marked increase | – | – | – | –
NC(=O)c1cccc(-c2c[nH]c3ncnc(N4CCOCC4)c23)c1 [Compound 11, 3-(4-Morpholino-7H-pyrrolo[2,3-d]pyrimidin-5-yl)benzamide] | – | 23.2 | – | marked increase | maximum inhibition of MOB1 phosphorylation observed at 1 h | significant reduction | 15.9 | –
OC1CCN(c2ncnc3[nH]cc(-c4cccc(Cl)c4)c23)CC1 [Compound 16, 1-(5-(3-Chlorophenyl)-7H-pyrrolo[2,3-d]pyrimidin-4-yl)piperidin-4-ol] | – | 5.9 | > 6.00 | marked increase | – | significant reduction | 11.6 | 78%**
Clc1cccc(-c2c[nH]c3nccc(N4CCOCC4)c23)c1 [Compound 23, 4-(3-(3-chlorophenyl)-1H-pyrrolo[2,3-b]pyridin-4-yl)morpholine] | 7.1 | 16.6 | > 6.00 | marked increase | – | – | – | 33%
CC(=O)NC1CCN(c2ncnc3[nH]cc(-c4cccc(Cl)c4)c23)CC1 [Compound 105, N-(1-(5-(3-chlorophenyl)-7H-pyrrolo[2,3-d]pyrimidin-4-yl)piperidin-4-yl)acetamide] | 8.7 | 4.6 | > 6.00 | – | – | significant reduction | – | 99%**
